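Five compound concentrations were applied to cells in 96-well plates for 48 hours; endpoints were derived by simple linear interpolation of the resulting dose-response curve. Definition used: TGI = concentration required for complete inhibition of growth.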 Bounds are passed on as bounds.

Data on nine compounds can be found in PubChem BioAssay (NCI).

Test systems include CCRF-CEM leukemia; KM12 colon; MCF7 breast; SW-620 colon; ACHN renal; CAKI-1 renal; NCI-H226 lung; COLO 205 colon; EKVX NSCLC; NCI-H522 lung; SF-268 CNS; DU-145 prostate; SNB-19 CNS; MDA-MB-231 breast; MOLT-4 leukemia; HOP-92 NSCLC; T-47D breast.
What all share (experiment): NCI anticancer screen, dose series, 48 h

As for `CSCCCNC(=O)c1csc([C@@H](CSC)NC(=O)CCNC(=O)[C@@H](NC(=O)OCC(Br)(Br)Br)C(C)O)n1` (some centres undefined), the TGI in the experiment with CCRF-CEM leukemia, in the experiment on KM12 colon, in the experiment with MCF7 breast, with SW-620 colon, in the experiment with ACHN renal and in the experiment on CAKI-1 renal was greater than 100 µM in each case. The TGI in the experiment on NCI-H226 lung, in the experiment with COLO 205 colon, in the experiment on EKVX NSCLC, in the experiment with NCI-H522 lung, with SF-268 CNS and in the experiment with DU-145 prostate was greater than 100 µM in each case. For the same compound, the TGI in the experiment on SNB-19 CNS, in the experiment on MDA-MB-231 breast, in the experiment on MOLT-4 leukemia and in the experiment with HOP-92 NSCLC was greater than 100 µM each time.

On to `CCOC(=O)c1ccc(Nc2nc3ccc(C(F)(F)F)cc3nc2-c2ccccc2)cc1`, for which the TGI was greater than 100 µM in the experiment with CCRF-CEM leukemia; greater than 100 µM in the experiment on KM12 colon; greater than 100 µM in the experiment on MCF7 breast; 87.1 µM in the experiment with T-47D breast; greater than 100 µM in the experiment with SW-620 colon; greater than 100 µM with ACHN renal. Moreover, the TGI in the experiment with CAKI-1 renal, in the experiment with NCI-H226 lung, in the experiment on EKVX NSCLC, in the experiment with NCI-H522 lung, in the experiment with SF-268 CNS and in the experiment with DU-145 prostate was greater than 100 µM throughout. In addition, the TGI with SNB-19 CNS and in the experiment on MOLT-4 leukemia was greater than 100 µM in each case.

In the case of `CC(=S)NNC(=O)c1ccncc1`, the TGI with CCRF-CEM leukemia, in the experiment with KM12 colon, in the experiment with SW-620 colon, in the experiment on ACHN renal, with CAKI-1 renal and with NCI-H226 lung was greater than 100 µM throughout. Moreover, the TGI with COLO 205 colon, with EKVX NSCLC, in the experiment on NCI-H522 lung, in the experiment on SF-268 CNS, with SNB-19 CNS and with MOLT-4 leukemia was greater than 100 µM each time. The compound also showed a TGI with HOP-92 NSCLC greater than 100 µM.

With `O=S(=O)(O)Nc1ccc(-c2nc3ccccc3s2)cc1Cl`, the TGI with CCRF-CEM leukemia, with KM12 colon, in the experiment on T-47D breast, in the experiment on SW-620 colon, with ACHN renal and in the experiment on CAKI-1 renal was greater than 100 µM each time. The TGI in the experiment with NCI-H226 lung, in the experiment with COLO 205 colon, in the experiment on EKVX NSCLC, in the experiment with NCI-H522 lung, with DU-145 prostate and in the experiment on SNB-19 CNS was greater than 100 µM in each case. In addition, the TGI with MDA-MB-231 breast and in the experiment with HOP-92 NSCLC was greater than 100 µM throughout.

In the case of `CSc1nc(-c2cc3c(c(SC)n2)CCC3)cc2c1CCC2`, the TGI in the experiment with CCRF-CEM leukemia, in the experiment on KM12 colon, in the experiment with SW-620 colon, in the experiment with ACHN renal, with CAKI-1 renal and with NCI-H226 lung was greater than 100 µM throughout. The TGI with COLO 205 colon, in the experiment on EKVX NSCLC, in the experiment with NCI-H522 lung, in the experiment on SF-268 CNS, in the experiment with DU-145 prostate and in the experiment with SNB-19 CNS was greater than 100 µM throughout. Besides, the TGI in the experiment with MDA-MB-231 breast and with MOLT-4 leukemia was greater than 100 µM in each case.

For `COC(=O)CC1(O)C(C=C(C)C)C(C(=O)OC)C(=O)C(C(=O)OC)C1C(=O)OC` (centres undefined), the TGI in the experiment on CCRF-CEM leukemia, with KM12 colon, in the experiment on MCF7 breast, with SW-620 colon, in the experiment with ACHN renal and in the experiment on CAKI-1 renal was greater than 100 µM each time. Further, the TGI in the experiment with NCI-H226 lung, with COLO 205 colon, in the experiment on EKVX NSCLC, with NCI-H522 lung, in the experiment on SF-268 CNS and with DU-145 prostate was greater than 100 µM throughout. Moreover, the TGI in the experiment with SNB-19 CNS, in the experiment with MDA-MB-231 breast, with MOLT-4 leukemia and in the experiment with HOP-92 NSCLC was greater than 100 µM in each case.

As to `C=C1CC(CNc2cc(Cl)nc(N)n2)C1`, the TGI with CCRF-CEM leukemia, in the experiment with KM12 colon, with MCF7 breast, with SW-620 colon, with ACHN renal and in the experiment with CAKI-1 renal was greater than 100 µM throughout. For the same compound, the TGI with NCI-H226 lung, in the experiment on COLO 205 colon, in the experiment with EKVX NSCLC, with NCI-H522 lung, in the experiment on SF-268 CNS and in the experiment on DU-145 prostate was greater than 100 µM in each case. Further, the TGI with SNB-19 CNS, in the experiment with MDA-MB-231 breast, in the experiment with MOLT-4 leukemia and with HOP-92 NSCLC was greater than 100 µM in each case.

Regarding `CNS(=O)(=O)NN(C)S(=O)(=O)c1ccc(Br)cc1`, the TGI in the experiment with CCRF-CEM leukemia, in the experiment with KM12 colon, in the experiment with SW-620 colon, with ACHN renal, in the experiment with CAKI-1 renal and with NCI-H226 lung was greater than 100 µM in each case. Moreover, the TGI in the experiment on COLO 205 colon, in the experiment with EKVX NSCLC, with NCI-H522 lung, in the experiment on SNB-19 CNS and in the experiment with MOLT-4 leukemia was greater than 100 µM in each case.

On to `Cc1ccc(-c2c(C#N)c(S)n(NS(=O)(=O)c3ccccc3)c(=O)c2C#N)cc1`, for which the TGI in the experiment on CCRF-CEM leukemia is greater than 100 µM; in the experiment on KM12 colon, 77.6 µM; with MCF7 breast it was greater than 100 µM; with SW-620 colon, 70 µM; in the experiment with ACHN renal, 82 µM; in the experiment with CAKI-1 renal, 92.9 µM. For the same compound, the TGI was 69 µM in the experiment with NCI-H226 lung; greater than 100 µM in the experiment with COLO 205 colon; greater than 100 µM in the experiment with EKVX NSCLC; 52.3 µM in the experiment on NCI-H522 lung; greater than 100 µM with DU-145 prostate; greater than 100 µM in the experiment on SNB-19 CNS. Moreover, the TGI in the experiment with MDA-MB-231 breast is greater than 100 µM; in the experiment on MOLT-4 leukemia it was 61.1 µM; in the experiment with HOP-92 NSCLC, greater than 100 µM.
